Measurements reported in paper PMC8222254, “Self-assembly of an anion receptor with metal-dependent kinase inhibition and potent in vitro anti-cancer properties” (Nature Communications, 2021).
Where “and” joins values, the source holds several entries; their conditions need not be identical. Identical values can stand only once.

Legend:
Test in all cases: Kinase inhibition screen, cell-free 33P ATP assay at 10 μM
Format in all cases: biochemical
[1] = target: 140 purified human kinases (Homo sapiens, UniProt P06213); details: IR
Chain of 140 purified human kinases (Homo sapiens, UniProt P06213) (P06213 28-1382): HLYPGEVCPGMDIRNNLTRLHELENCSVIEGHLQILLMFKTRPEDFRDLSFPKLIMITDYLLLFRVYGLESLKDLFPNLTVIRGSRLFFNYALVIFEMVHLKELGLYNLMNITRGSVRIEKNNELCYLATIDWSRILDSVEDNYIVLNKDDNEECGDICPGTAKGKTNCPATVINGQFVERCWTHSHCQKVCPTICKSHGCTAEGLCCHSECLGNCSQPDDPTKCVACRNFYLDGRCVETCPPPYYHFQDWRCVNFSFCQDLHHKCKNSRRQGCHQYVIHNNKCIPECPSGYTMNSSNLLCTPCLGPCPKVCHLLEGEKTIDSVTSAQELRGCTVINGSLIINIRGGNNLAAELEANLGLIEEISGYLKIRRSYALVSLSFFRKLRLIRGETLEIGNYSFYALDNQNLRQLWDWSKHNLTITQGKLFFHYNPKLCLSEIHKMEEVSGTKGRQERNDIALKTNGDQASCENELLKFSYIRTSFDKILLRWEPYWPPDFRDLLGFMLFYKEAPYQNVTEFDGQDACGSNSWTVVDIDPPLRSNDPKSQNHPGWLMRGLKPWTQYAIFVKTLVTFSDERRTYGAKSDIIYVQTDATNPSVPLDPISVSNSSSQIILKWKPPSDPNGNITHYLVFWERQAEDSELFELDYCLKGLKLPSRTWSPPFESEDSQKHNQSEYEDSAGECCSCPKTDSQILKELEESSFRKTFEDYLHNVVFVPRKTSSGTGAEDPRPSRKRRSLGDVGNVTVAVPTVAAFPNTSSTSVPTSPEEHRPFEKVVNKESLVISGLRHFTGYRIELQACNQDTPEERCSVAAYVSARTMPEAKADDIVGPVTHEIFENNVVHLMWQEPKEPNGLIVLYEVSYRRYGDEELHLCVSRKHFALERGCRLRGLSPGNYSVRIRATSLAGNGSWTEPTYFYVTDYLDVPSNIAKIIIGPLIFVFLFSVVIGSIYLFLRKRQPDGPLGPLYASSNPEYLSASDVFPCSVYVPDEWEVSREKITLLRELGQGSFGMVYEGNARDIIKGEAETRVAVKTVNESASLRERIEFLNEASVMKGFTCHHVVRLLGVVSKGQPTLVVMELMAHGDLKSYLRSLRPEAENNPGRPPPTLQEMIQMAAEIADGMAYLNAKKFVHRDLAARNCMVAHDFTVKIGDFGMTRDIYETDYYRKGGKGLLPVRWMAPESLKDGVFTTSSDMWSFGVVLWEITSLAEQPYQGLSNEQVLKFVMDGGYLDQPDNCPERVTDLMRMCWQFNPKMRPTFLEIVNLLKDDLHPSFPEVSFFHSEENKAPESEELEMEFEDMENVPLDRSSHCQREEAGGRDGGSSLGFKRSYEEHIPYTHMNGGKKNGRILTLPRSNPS
Summary of the method: (§1)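 Radiometric ^33P ATP cell-free format with purified enzymes; both complexes run at 10 μM in duplicate, results plotted on a kinome map via HGNC symbols.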

[2] = target: T1, 140 purified human kinases (Homo sapiens, UniProt Q16832)
T1 sequence (Q16832 22-855): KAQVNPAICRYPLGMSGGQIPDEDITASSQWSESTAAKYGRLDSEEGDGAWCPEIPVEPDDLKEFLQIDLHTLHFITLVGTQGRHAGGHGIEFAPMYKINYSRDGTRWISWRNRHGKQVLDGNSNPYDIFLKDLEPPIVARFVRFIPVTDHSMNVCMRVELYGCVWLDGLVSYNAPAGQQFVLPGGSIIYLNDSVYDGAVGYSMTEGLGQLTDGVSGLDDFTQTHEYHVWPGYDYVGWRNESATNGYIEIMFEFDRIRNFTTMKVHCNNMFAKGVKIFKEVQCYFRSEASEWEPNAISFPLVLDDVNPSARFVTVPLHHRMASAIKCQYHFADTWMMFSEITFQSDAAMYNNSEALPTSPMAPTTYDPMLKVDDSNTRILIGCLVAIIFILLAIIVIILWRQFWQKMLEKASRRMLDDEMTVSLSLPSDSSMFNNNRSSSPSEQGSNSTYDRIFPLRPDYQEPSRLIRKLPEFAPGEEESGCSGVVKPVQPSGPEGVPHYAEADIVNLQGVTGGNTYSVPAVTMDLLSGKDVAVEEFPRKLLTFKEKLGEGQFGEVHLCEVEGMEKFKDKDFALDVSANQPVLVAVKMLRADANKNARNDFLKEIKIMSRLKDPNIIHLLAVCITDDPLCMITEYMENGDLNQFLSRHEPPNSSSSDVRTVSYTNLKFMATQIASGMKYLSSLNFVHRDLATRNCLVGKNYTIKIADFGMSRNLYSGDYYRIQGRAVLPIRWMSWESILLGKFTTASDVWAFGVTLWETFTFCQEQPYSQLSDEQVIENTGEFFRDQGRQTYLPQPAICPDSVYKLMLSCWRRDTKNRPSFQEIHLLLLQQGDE
Summary of the method: as §1

[3] = target: 140 purified human kinases (Homo sapiens, UniProt O75716)
Chain of 140 purified human kinases (Homo sapiens, UniProt O75716) (O75716 whole entry): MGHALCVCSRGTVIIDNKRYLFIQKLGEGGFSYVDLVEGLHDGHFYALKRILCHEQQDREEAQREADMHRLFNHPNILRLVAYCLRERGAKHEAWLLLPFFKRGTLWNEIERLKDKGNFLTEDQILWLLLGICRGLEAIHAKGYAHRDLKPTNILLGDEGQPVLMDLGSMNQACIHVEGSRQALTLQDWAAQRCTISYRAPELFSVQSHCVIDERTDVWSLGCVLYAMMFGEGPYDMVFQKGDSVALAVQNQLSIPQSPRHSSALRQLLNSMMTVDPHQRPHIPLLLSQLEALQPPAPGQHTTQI
Summary of the method: as §1

[4] = target: T2, 140 purified human kinases (Homo sapiens, UniProt Q8IYT8)
T2 sequence (Q8IYT8 1-1036): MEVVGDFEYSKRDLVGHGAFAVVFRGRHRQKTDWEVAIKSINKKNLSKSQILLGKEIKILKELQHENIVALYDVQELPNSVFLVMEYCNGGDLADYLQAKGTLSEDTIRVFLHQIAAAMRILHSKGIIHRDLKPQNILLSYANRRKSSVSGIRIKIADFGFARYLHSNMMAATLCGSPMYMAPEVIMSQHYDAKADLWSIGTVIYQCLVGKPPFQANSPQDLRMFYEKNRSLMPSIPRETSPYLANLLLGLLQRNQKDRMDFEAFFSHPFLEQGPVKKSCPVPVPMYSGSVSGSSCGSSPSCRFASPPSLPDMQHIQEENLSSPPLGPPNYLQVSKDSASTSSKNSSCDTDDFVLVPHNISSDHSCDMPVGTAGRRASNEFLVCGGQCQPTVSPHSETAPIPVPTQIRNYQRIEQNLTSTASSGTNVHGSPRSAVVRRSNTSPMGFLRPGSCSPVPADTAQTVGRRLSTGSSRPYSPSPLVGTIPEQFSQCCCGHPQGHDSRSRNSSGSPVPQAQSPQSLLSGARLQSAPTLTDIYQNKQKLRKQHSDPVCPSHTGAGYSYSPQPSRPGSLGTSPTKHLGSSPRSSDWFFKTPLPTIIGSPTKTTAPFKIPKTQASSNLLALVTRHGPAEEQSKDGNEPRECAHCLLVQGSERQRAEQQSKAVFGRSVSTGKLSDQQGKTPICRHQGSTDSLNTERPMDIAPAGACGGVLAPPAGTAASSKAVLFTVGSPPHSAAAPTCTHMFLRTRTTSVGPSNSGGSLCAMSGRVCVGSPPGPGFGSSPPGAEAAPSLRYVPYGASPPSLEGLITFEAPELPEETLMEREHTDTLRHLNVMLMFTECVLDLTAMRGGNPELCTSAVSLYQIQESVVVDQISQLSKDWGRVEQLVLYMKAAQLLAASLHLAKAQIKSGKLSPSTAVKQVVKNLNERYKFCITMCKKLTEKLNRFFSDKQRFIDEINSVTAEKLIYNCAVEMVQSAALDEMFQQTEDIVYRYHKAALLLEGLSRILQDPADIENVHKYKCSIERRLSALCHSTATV
Summary of the method: as §1

[5] = target: 140 purified human kinases (Homo sapiens, UniProt Q15746); details: SmMLCK
Chain of 140 purified human kinases (Homo sapiens, UniProt Q15746) (Q15746 whole entry): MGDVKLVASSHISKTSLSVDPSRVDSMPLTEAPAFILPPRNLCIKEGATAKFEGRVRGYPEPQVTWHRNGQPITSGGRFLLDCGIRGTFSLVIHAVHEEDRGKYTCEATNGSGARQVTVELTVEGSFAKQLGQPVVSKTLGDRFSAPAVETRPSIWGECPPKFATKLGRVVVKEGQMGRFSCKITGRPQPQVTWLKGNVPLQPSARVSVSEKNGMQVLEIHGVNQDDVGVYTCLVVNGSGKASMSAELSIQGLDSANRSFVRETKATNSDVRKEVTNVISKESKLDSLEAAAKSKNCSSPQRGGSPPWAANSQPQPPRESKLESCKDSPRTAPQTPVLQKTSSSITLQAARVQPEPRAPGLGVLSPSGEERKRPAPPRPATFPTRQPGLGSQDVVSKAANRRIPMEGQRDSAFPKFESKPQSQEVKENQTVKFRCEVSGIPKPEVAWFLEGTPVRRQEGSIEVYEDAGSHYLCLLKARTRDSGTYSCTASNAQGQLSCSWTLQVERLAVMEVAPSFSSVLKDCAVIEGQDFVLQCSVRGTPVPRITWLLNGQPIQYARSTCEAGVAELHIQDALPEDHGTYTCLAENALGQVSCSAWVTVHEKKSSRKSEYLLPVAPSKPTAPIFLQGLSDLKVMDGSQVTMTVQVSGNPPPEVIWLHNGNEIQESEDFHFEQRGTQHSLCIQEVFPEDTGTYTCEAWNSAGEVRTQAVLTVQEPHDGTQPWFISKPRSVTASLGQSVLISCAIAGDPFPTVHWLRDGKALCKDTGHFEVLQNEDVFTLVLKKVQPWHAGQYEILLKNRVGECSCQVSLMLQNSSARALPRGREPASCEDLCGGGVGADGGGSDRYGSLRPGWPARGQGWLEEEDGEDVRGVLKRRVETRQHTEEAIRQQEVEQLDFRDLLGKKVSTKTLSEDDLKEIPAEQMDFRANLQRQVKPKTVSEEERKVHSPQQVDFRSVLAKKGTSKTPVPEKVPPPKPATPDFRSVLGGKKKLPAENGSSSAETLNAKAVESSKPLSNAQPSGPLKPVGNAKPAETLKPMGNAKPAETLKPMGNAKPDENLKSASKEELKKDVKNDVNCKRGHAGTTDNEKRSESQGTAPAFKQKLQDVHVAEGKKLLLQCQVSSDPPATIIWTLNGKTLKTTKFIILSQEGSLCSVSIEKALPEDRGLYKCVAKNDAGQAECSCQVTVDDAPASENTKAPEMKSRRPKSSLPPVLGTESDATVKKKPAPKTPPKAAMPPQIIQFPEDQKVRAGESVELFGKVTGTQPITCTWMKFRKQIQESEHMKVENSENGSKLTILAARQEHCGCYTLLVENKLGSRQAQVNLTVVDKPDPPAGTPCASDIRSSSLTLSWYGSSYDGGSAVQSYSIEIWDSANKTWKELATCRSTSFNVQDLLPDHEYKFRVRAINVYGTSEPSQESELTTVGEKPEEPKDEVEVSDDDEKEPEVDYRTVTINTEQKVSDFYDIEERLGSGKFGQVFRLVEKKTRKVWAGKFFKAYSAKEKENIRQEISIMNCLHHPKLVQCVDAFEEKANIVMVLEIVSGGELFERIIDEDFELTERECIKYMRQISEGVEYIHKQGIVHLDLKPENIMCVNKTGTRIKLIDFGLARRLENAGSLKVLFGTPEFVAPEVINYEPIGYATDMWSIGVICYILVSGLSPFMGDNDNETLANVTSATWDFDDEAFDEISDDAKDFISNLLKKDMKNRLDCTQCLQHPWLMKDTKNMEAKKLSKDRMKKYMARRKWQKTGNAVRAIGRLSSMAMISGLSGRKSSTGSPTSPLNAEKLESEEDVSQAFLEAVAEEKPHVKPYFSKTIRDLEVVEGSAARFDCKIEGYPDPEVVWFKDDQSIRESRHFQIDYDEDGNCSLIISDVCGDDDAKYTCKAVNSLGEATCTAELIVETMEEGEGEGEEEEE
Summary of the method: as §1

## CC(=O)[O-].CC(=O)[O-].CC(=O)[O-].CC(=O)[O-].CC(=O)[O-].CC(=O)[O-].[Zn+2].[Zn+2].[Zn+2].c1ccc(-c2csc(NCCN(CCNc3nc(-c4ccccn4)cs3)CCNc3nc(-c4ccccn4)cs3)n2)nc1.c1ccc(-c2csc(NCCN(CCNc3nc(-c4ccccn4)cs3)CCNc3nc(-c4ccccn4)cs3)n2)nc1 [[L2Zn3]6+]
[1]
  % Inhibition, Mean: 12%
  mean % activity: 88%
[1]; duplicate runs
  % activity: 80% and 95%
[2]; DDR2
  % Inhibition, Mean: 19%
  % Inhibition, Run 1 / Run 2: 23% and 15%
  mean % activity: 81%
[2]; DDR2, duplicate runs
  % activity: 77% and 85%
[3]; MPSK1
  % Inhibition, Mean: 22%
  mean % activity: 79%
[3]; MPSK1, duplicate runs
  % activity: 71% and 86%
[4]; ULK2
  % Activation, Mean value: 2%
  % Inhibition, Mean: -2%
  mean % activity: 102%
[4]; ULK2, duplicate runs
  % activity: 95% and 109%
[5]
  % Inhibition, Mean: 3.75%
  mean % activity: 96%
[5]; duplicate runs
  % activity: 76% and 117%

## [Cu+2].[Cu+2].[Cu+2].c1ccc(-c2csc(NCCN(CCNc3nc(-c4ccccn4)cs3)CCNc3nc(-c4ccccn4)cs3)n2)nc1.c1ccc(-c2csc(NCCN(CCNc3nc(-c4ccccn4)cs3)CCNc3nc(-c4ccccn4)cs3)n2)nc1 [[L2Cu3]6+]
[1]
  % Inhibition Run 1: 20%
  % Inhibition Run 2: 18.1%
  % Inhibition, Mean: 19%
  mean % activity: 81%
[1]; Run 1
  % activity: 80%
[1]; Run 2
  % activity: 81.9%
[2]; DDR2
  % Inhibition Run 1: 21.7%
  % Inhibition Run 2: 11.4%
  % Inhibition, Mean: 17%
  mean % activity: 83%
[2]; DDR2, Run 1
  % activity: 78.3%
[2]; DDR2, Run 2
  % activity: 88.6%
[3]; MPSK1
  % Inhibition Run 1: 71.3%
  % Inhibition Run 2: 60%
  % Inhibition, Mean: 66%
  mean % activity: 34%
[3]; MPSK1, Run 1
  % activity: 28.7%
[3]; MPSK1, Run 2
  % activity: 40%
[4]; ULK2
  % Inhibition Run 1: 48%
  % Inhibition Run 2: 52.6%
  % Inhibition, Mean: 50%
  mean % activity: 50%
[4]; ULK2, Run 1
  % activity: 52%
[4]; ULK2, Run 2
  % activity: 47.4%
[5]
  % Inhibition Run 1: 59.8%
  % Inhibition Run 2: 52.2%
  % Inhibition, Mean: 56%
  mean % activity: 44%
[5]; Run 1
  % activity: 40.2%
[5]; Run 2
  % activity: 47.8%
